Measurements published in patent US10987669B2, “Apparatus and method for detection of tumour cells and circulating tumour cells” (MEDCOM ADVANCE, S.A., priority 2016, dated 2021).

Experiments:
Type in all cases: cell-based
[1] = tested on: MCF7 breast cancer cell line (compared with MCF12A healthy breast cells); test: 2-NBD glucose uptake measurements on fixed cells; settings: for Fluorescence intensity of 2-NBDG, cancer versus healthy cells: 300 μM 2-NBDG
Description: MCF12A, a breast mammary epithelia-derived cell line, and MCF7 breast cancer cell line (American Type Culture Collection, ATCC, Manassas, Va., USA), were routinely cultured in DMEM/F-12 supplemented with 20 ng/mL of human epidermal growth factor, 100 ng/mL of cholera toxin, 0.01 mg/mL of bovine insulin, 500 ng/mL of hydrocortisone 95% and 5% donor horse serum; and in EMEM (Eagle's Minimum Essential Medium) supplemented with 10% fetal bovine serum, 0.01 mg/mL human recombinant insulin, 2 mM of L-glutamine and 1% Penicillin-Streptomycin, respectively. Each cell line was cultured in a humidified atmosphere with 5% CO2 at 37° C.
To study the general uptake and retention of glucose, cells were exposed to 300 μM of 2-(N-(7-Nitrobenz-2-oxa-1,3-diazol-4-yl)Amino)-2-Deoxyglucose (2-NBDG) for different incubation times: 1, 5, 10, 20, 30, and 60 min. To achieve higher 2-NBDG accumulation inside MCF7 cells, cells were exposed to different conditions based on the concentrations of dissolved oxygen. The effects on oxygen availability were evaluated by exposing cells to the hyperoxic or hypoxic environment, created by bubbling 2-NBDG incubation media for 20 min with oxygen or nitrogen, respectively. Afterwards, cells were fixed with 4% paraformaldehyde solution in 1×PBS, for 20 min, and then washed 6 times with 1×PBS and mounted onto glass slides with Fluoromount G (Southern Biotech), for the fluorescence measurements.
(§1) Fixed cells were imaged with fluorescence microscopy and then analysed using Image J. Epi-fluorescence microscope NIKON TE2000E equipped with the 465/495 excitation and 515/555 emission filters was used to collect the fluorescence of 2-NBDG. […]
2-(N-(7-Nitrobenz-2-oxa-1,3-diazol-4-yl)Amino)-2-Deoxyglucose (2-NBDG) is chosen as the model metabolism indicator. […] The concentration of 2-NBDG was determined based on the gain of clear visibility on the fluorescence images. The fluorescence intensity was quantified using Image J. The same thresholds were set for fluorescence images of both healthy and cancer cells to remove the background noises. […]

[2] = tested on: co-cultured MCF7 (Qdot685 labelled) cells with MCF12A (Qdot625 labelled) cells; test: 2-NBD glucose uptake measurements in co-cultured cells; settings: 300 μM 2-NBDG, 5 min, hyperoxic environment, co-culture
Description: To successfully identify different cell types in a cell mixture, previously functionalized Qdot 625 and 685 were used as the intracellular trackers for MCF12A and MCF7 cells, respectively. 50,000 cells/wells of each type were cultured separately onto glass cover slips inside 12-well plates and left growing for 48 h, at 5% CO2 and 37° C. Then, cells were washed with pre-warmed 1×PBS for 1 minute and 100 nM of each Qdot@amino-PEG was added in the cell growth media, and waited for 1 hour. After the incubation, cells were washed 3 times with 1×PBS. MCF7 (Qdot685 labelled) cells were detached from the surface using Trypsin-EDTA solution 0.25% and re-cultured onto MCF12A (Qdot625 labelled) cells. […]
Co-cultured MCF7 (Qdot685 labelled) cells with MCF12A (Qdot625 labelled) cells were exposed to 300 μM of 2-NBDG for 5 min, under the hyperoxic environment, determined by the previous optimizations. Afterwards, cells were fixed with 4% paraformaldehyde solution in 1×PBS for 20 min, and then washed 6 times with 1×PBS and mounted onto glass slides with Fluoromount G (Southern Biotech), for the fluorescence measurements.
as §1

MCF7 and MCF12A cells = test: On-line detection of cancer and healthy cells in the detection microfluidic chip; settings: 150 μM 2-NBDG, 5 min, hyperoxic 1×PBS, cells in flow at 0.025 mL/h
Excerpt: A detection chip based on the hydrodynamic focusing technique was constructed to continuously detect hypermetabolic cancer cells by measuring single cell fluorescence. It consisted of three inlets, a main single channel and an outlet (FIG. 8a). All inlet channels converged in a single one of 75 μm-width, which was widen to 600 μm (detection region). The conformation of the inlet channels ensures the focus of cells into a line, which can be further detected one by one. Depth of the whole microfluidic chip was 75 μm.
For the on-line detection of cancer and healthy cells, MCF12A and MCF7 cells were separately detached from culture flasks, centrifuged at 1,300 rpm for 5 min and resuspended in 1 mL of 1×PBS under hyperoxic conditions. As mentioned above, hyperoxia was achieved by bubbling oxygen into the PBS solution for 20 min. 2-NBDG was then added to achieve 150 μM as the final concentration and incubated with suspended cells for 5 min, as the optimal condition. Afterwards, incubation was stopped by adding 2-fold volume of pre-cooled 1×PBS and non-uptaken 2-NBDG was removed by centrifuging cells at 1,300 rpm for 5 min and suspending in 1×PBS. […] An epi-fluorescence microscope was used to collect the fluorescence of the 2-NBDG uptaken by single cells (both, MCF12A and MCF7). Data was analyzed with Image J software.

## O=[N+]([O-])c1ccc(N[C@H]2C(O)O[C@H](CO)[C@@H](O)[C@@H]2O)c2nonc12 (some centres unmarked) [2-NBDG, 2-(N-(7-Nitrobenz-2-oxa-1,3-diazol-4-yl)Amino)-2-Deoxyglucose]
[1]; 5 min incubation, MCF7 vs MCF12A cultured separately
  Fluorescence intensity of 2-NBDG, cancer versus healthy cells: higher fluorescence compared to healthy cells
[1]; incubation longer than 5 min (up to 60 min), MCF7 vs MCF12A
  Fluorescence intensity of 2-NBDG, cancer versus healthy cells: fluorescence from healthy cells overtakes the cancer cells
[1]; 5 min incubation, hyperoxia compared to control and hypoxia environments
  Fluorescence intensity gap between cancer and healthy cells: further enlarged
[2]
  Fluorescence intensity of 2-NBDG, cancer cell versus surrounded healthy cells: greater fluorescence intensity
MCF7 and MCF12A cells
  Single cell fluorescence intensity of 2-NBDG, cancer versus healthy cells: higher fluorescence intensity compared to the healthy ones
